pIC50: −log10 of the molar value.
target: T1, human MRGPRX2 (Homo sapiens, UniProt Q96LB1); test: MRGPRX2 activity: IP-One HTRF antagonist assay in CHO cells versus Cortistatin-14; assay type: cell-based; settings: CHO cells stably expressing human MRGPRX2; versus 0.3 uM Cortistatin-14 agonist; IP-1 HTRF
T1 construct: expressed in transfected cells
T1 sequence (Q96LB1 1-330): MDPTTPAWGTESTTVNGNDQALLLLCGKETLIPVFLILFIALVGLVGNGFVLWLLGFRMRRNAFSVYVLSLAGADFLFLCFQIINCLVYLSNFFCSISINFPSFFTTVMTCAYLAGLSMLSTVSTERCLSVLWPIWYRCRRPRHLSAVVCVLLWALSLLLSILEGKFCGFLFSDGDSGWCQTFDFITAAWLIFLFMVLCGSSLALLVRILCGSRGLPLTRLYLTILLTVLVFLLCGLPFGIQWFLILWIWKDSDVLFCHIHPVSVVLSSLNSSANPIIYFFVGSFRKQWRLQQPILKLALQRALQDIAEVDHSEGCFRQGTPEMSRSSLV
Method: CHO cells stably transfected to express human MRGPRX2 were maintained in an incubator at 37° C. with 5% CO2 and grown in F12 (HAM) media with 10% fetal bovine serum (FBS), 1% Glutamax, 1% penicillin/streptomycin, 800 μg/mL Geneticin (G418), and 300 μg/mL Hygromycin B.
Cells were plated in a 384-well assay plate at 20,000 cells per well in 12 μL of Opti-MEM and kept in an incubator overnight. On the day of the assay, compounds solubilized at 10 mM in DMSO were added as a 10-point curve (30 uM final top concentration with 1:3 serial dilutions) using a Tecan D300E digital dispenser. Agonists were diluted in assay buffer (final concentrations of 5.7 mM Tris-HCl, 43 mM NaCl, 50 mM LiCl, pH=8) and 2 μL of the agonist Cortistatin-14 (CPC Scientific, catalog CORT-002) are added to each well. Final concentrations of agonists were 0.3 μM Cortistatin. Final concentrations of DMSO were kept consistent across the plate. Plates were incubated in the dark for 1 h at 37° C. and then for 1 h at room temperature. IP-1 standards and HTRF detection reagents were added according to the IP-One-Gq Kit purchased from Cisbio (part number 62IPAPEJ) and incubated in the dark for 1 h at room temperature. The plate was read on a Molecular Devices SpectraMax iD5 plate reader. The HTRF ratio was calculated from the raw data and graphed using GraphPad Prism to calculate an IC50 value for each compound.
The activity ranges are denoted as follows: “+++++” denotes antagonist activity <100 nM; “++++” denotes antagonist activity between 100 and 500 nM; “+++” denotes activity between 501 and 1000 nM; “[…]” denotes activity between 1001 and 2500 nM; and “+” denotes activity >2500 nM

`Cc1c(C(=O)N[C@@H]2CCC[C@H](Nc3cc(C(F)(F)F)nc4ccc(Cl)cc34)C2)ccn1CCF` [Example 5-1] and `Cc1c(C(=O)N[C@@H]2CCC[C@H](Nc3cc(C(F)(F)F)nc4ccc(Cl)cc34)C2)ccn1CC(F)F` [Example 5-5] cannot be ordered by pIC50: over 7.00 for the first, over 7.00 for the second.

Compared with `O=C(N[C@@H]1CCC[C@H](Nc2cc(C(F)(F)F)nc3ccccc23)C1)c1coc2ccccc2c1=O` (racemic) [Example 4-111], `CCc1ccc(C(=O)N[C@@H]2CCC[C@H](Nc3cc(C(F)(F)F)nc4ccccc34)C2)cc1` [Example 4-18] is higher in pIC50: under 5.60 for the first, 6.30 to 7.00 for the second.

`Cc1cc(C(=O)N[C@@H]2CCC[C@H](Nc3cc(C(F)(F)F)nc4ccc(Cl)cc34)C2)co1` [Example 4-419] and `Cn1ccc(C(=O)N[C@@H]2CCC[C@H](Nc3cc(C(F)(F)F)nc4ccc(Cl)cc34)C2)c1` [Example 4-416] cannot be ordered by pIC50: over 7.00 for the first, over 7.00 for the second.

`O=C(N[C@@H]1CCC[C@H](Nc2cc(C(F)(F)F)nc3ccc(Cl)cc23)C1)c1ccc(N2CC2)cc1` [Example 4-415] and `O=C(N[C@@H]1CCC[C@H](Nc2cc(C(F)(F)F)nc3ccc(Cl)cc23)C1)c1ccc(C(=O)N2CCOCC2)cc1` [Example 3-20] cannot be ordered by pIC50: over 7.00 for the first, over 7.00 for the second.

`CS(=O)(=O)Nc1cc(C(=O)N[C@@H]2CCC[C@H](Nc3cc(C(F)(F)F)nc4ccc(Cl)cc34)C2)ccc1F` [Example 4-258] and `CS(=O)(=O)Nc1ccc(C(=O)N[C@@H]2CCC[C@H](Nc3cc(C(F)(F)F)nc4ccc(Cl)cc34)C2)cc1` [Example 4-240] cannot be ordered by pIC50: over 7.00 for the first, over 7.00 for the second.

`Cc1nn(CC(F)(F)F)cc1C(=O)N[C@@H]1CCC[C@H](Nc2cc(C(F)(F)F)nc3ccc(Cl)cc23)C1` [Example 4-464] and `Cc1nn(C)cc1C(=O)N[C@@H]1CCC[C@H](Nc2cc(C(F)(F)F)nc3ccc(Cl)cc23)C1` [Example 4-401] cannot be ordered by pIC50: over 7.00 for the first, over 7.00 for the second.

`Cc1nc2c(s1)CN(C(=O)N[C@@H]1CCC[C@H](Nc3cc(C(F)(F)F)nc4ccc(Cl)cc34)C1)CC2` [Example 46, N-((1R,3S)-3-((6-chloro-2-(trifluoromethyl)quinolin-4-yl)amino)cyclohexyl)-2-methyl-6,7-dihydrothiazolo[5,4-c]pyridine-5(4H)-carboxamide] and `Cn1cc2c(n1)CCN(C(=O)N[C@@H]1CCC[C@H](Nc3cc(C(F)(F)F)nc4ccc(Cl)cc34)C1)C2` [Example 8-16] cannot be ordered by pIC50: over 7.00 for the first, over 7.00 for the second.

`O=C(N[C@@H]1CCC[C@H](Nc2cc(C(F)(F)F)nc3ccc(Cl)cc23)C1)N1CCCC1` [Example 8-3] and `O=C(N[C@@H]1CCC[C@H](Nc2cc(C(F)(F)F)nc3ccc(Cl)cc23)C1)c1ccon1` [Example 4-425] cannot be ordered by pIC50: over 7.00 for the first, over 7.00 for the second.

`O=C(N[C@@H]1CCC[C@H](Nc2cc(C(F)(F)F)nc3ccc(Cl)cc23)C1)c1cccc2[nH]ccc12` [Example 4-223] and `CCc1[nH]ccc1C(=O)N[C@@H]1CCC[C@H](Nc2cc(C(F)(F)F)nc3ccc(Cl)cc23)C1` [Example 4-427] cannot be ordered by pIC50: over 7.00 for the first, over 7.00 for the second.

`O=C(N[C@@H]1CCC[C@H](Nc2cc(C(F)(F)F)nc3ccc(Cl)cc23)C1)c1ccn2cnnc2c1` [Example 4-397] and `O=C(N[C@@H]1CCC[C@H](Nc2cc(C(F)(F)F)nc3ccc(Cl)cc23)C1)c1ccc2nncn2c1` [Example 4-245] cannot be ordered by pIC50: over 7.00 for the first, over 7.00 for the second.

`CNc1ccc(C(=O)N[C@@H]2CCC[C@H](Nc3cc(C(F)(F)F)nc4ccc(C)cc34)C2)cc1` [Example 4-130] and `CS(=O)(=O)Nc1ccc(C(=O)N[C@@H]2CCC[C@H](Nc3cc(C(F)(F)F)nc4ccc(F)cc34)C2)cc1` [Example 4-317] cannot be ordered by pIC50: over 7.00 for the first, over 7.00 for the second.

`CCn1ncc(C(=O)N[C@@H]2CCC[C@H](Nc3cc(C(F)(F)F)nc4ccc(Cl)cc34)C2)c1C` [Example 4-452] and `Cc1cn(C)cc1C(=O)N[C@@H]1CCC[C@H](Nc2cc(C(F)(F)F)nc3ccc(Cl)cc23)C1` [Example 4-417] cannot be ordered by pIC50: over 7.00 for the first, over 7.00 for the second.

`O=C(N[C@@H]1CCC[C@H](Nc2cc(C(F)(F)F)nc3ccc(Cl)cc23)C1)c1ncco1` [Example 4-424] and `Cn1c(C(=O)N[C@@H]2CCC[C@H](Nc3cc(C(F)(F)F)nc4ccc(Cl)cc34)C2)cnc1Cl` [Example 4-412] cannot be ordered by pIC50: over 7.00 for the first, over 7.00 for the second.

`O=C(N[C@@H]1CCC[C@H](Nc2cc(C(F)(F)F)nc3ccc(Cl)cc23)C1)c1cn(C(F)F)nc1Cl` [Example 4-406] and `Cn1cc(C(=O)N[C@@H]2CCC[C@H](Nc3cc(C(F)(F)F)nc4ccc(Cl)cc34)C2)c(C(F)F)n1` [Example 4-404] cannot be ordered by pIC50: over 7.00 for the first, over 7.00 for the second.

`O=C(CCc1cc(Br)ccc1F)N[C@@H]1CCC[C@H](Nc2cc(C(F)(F)F)nc3ccccc23)C1` (racemic) [Example 4-74] and `O=C(CCc1ccc(Cl)c(F)c1)N[C@@H]1CCC[C@H](Nc2cc(C(F)(F)F)nc3ccccc23)C1` (racemic) [Example 4-82] cannot be ordered by pIC50: under 5.60 for the first, under 5.60 for the second.

`O=C(N[C@@H]1CCC[C@H](Nc2cc(C(F)(F)F)nc3ccc(Cl)cc23)C1)c1cnn(C2COC2)c1` [Example 4-407] and `O=C(N[C@@H]1CCC[C@H](Nc2cc(C(F)(F)F)nc3ccc(Cl)cc23)C1)c1cnn(CCCl)c1` [Example 4-396] cannot be ordered by pIC50: over 7.00 for the first, over 7.00 for the second.

First: CNc1cc(C(=O)N[C@@H]2CCC[C@H](Nc3cc(C(F)(F)F)nc4ccc(Cl)cc34)C2)ccc1OC [Example 4-413]
Second: O=C(N[C@@H]1CCC[C@H](Nc2cc(C(F)(F)F)nc3ccc(Cl)cc23)C1)c1cccc(Cl)c1 [Example 4-249]
The pIC50 of the first is higher: over 7.00 for the first, 6.30 to 7.00 for the second. The first is the more potent here.

`CC(C)(C)OC(=O)N1CCC[C@@H](n2cc(C(=O)N[C@@H]3CCC[C@H](Nc4cc(C(F)(F)F)nc5ccc(Cl)cc45)C3)cn2)C1` [Example 5-13] and `CC(C)(C)OC(=O)N1CC[C@@H](n2cc(C(=O)N[C@@H]3CCC[C@H](Nc4cc(C(F)(F)F)nc5ccc(Cl)cc45)C3)cn2)C1` [Example 40, tert-butyl (R)-3-(4-(((1R,3S)-3-((6-chloro-2-(trifluoromethyl)quinolin-4-yl)amino)cyclohexyl)carbamoyl)-1H-pyrazol-1-yl)pyrrolidine-1-carboxylate] cannot be ordered by pIC50: over 7.00 for the first, over 7.00 for the second.

`CC(C)S(=O)(=O)Nc1cccc(C(=O)N[C@@H]2CCC[C@H](Nc3cc(C(F)(F)F)nc4ccc(Cl)cc34)C2)c1` [Example 4-228] and `CC(C)S(=O)(=O)Nc1cccc(C(=O)N[C@@H]2CCC[C@H](Nc3cc(C(F)(F)F)nc4ccc(F)cc34)C2)c1` [Example 4-297] cannot be ordered by pIC50: over 7.00 for the first, over 7.00 for the second.

First: Cc1cn2cc(C(=O)N[C@@H]3CCC[C@H](Nc4cc(C(F)(F)F)nc5ccc(Cl)cc45)C3)ccc2n1 [Example 4-265]
Second: CN(C)c1cccc(C(=O)N[C@@H]2CCC[C@H](Nc3cc(C(F)(F)F)nc4ccc(Cl)cc34)C2)c1 [Example 4-216]
The pIC50 of the first is higher: over 7.00 for the first, 6.30 to 7.00 for the second.

`N#Cc1nn(CCF)cc1C(=O)N[C@@H]1CCC[C@H](Nc2cc(C(F)(F)F)nc3ccc(Cl)cc23)C1` [Example 5-31] and `N#Cc1cc(C(=O)N[C@@H]2CCC[C@H](Nc3cc(C(F)(F)F)nc4ccc(Cl)cc34)C2)c[nH]1` [Example 4-408] cannot be ordered by pIC50: over 7.00 for the first, over 7.00 for the second.

`O=C(N[C@@H]1CCC[C@H](Nc2cc(C(F)(F)F)nc3ccc(Cl)cc23)C1)c1c[nH]nc1C(F)F` [Example 4-511] and `Cc1cc(C(=O)N[C@@H]2CCC[C@H](Nc3cc(C(F)(F)F)nc4ccc(Cl)cc34)C2)c(C)[nH]1` [Example 4-426] cannot be ordered by pIC50: over 7.00 for the first, over 7.00 for the second.

`CS(=O)(=O)Nc1cccc(C(=O)N[C@@H]2CCC[C@H](Nc3cc(C(F)(F)F)nc4ccc(F)cc34)C2)c1` [Example 4-302] and `CC(C#N)c1cccc(C(=O)N[C@@H]2CCC[C@H](Nc3cc(C(F)(F)F)nc4ccc(F)cc34)C2)c1` (stereo partly shown) [Example 4-282] cannot be ordered by pIC50: over 7.00 for the first, over 7.00 for the second.

`CN(C)Cc1ccc(C(=O)N[C@@H]2CCC[C@H](Nc3cc(C(F)(F)F)nc4ccc(Cl)cc34)C2)cc1` [Example 4-410] and `O=C(N[C@@H]1CCC[C@H](Nc2cc(C(F)(F)F)nc3ccc(Cl)cc23)C1)c1cc(O)cc(O)c1` [Example 4-271] cannot be ordered by pIC50: over 7.00 for the first, over 7.00 for the second.

First: O=C(N[C@@H]1CCC[C@H](Nc2cc(C(F)(F)F)nc3ccccc23)C1)c1ccc2[nH]c(-c3ccncc3)nc2c1 [Example 4-181]
Second: O=C(N[C@@H]1CCC[C@H](Nc2cc(C(F)(F)F)nc3ccc(Cl)cc23)C1)c1cn[nH]c1C1CC1 [Example 4-405]
The pIC50 of the first is lower: 6.30 to 7.00 for the first, over 7.00 for the second. The second is the more potent here.

Compared with `C=CC12CCC(C(=O)N[C@@H]3CCC[C@H](Nc4cc(C(F)(F)F)nc5ccccc45)C3)(CC1)CO2` [Example 4-171], `CC1C(C(=O)N[C@@H]2CCC[C@H](Nc3cc(C(F)(F)F)nc4ccccc34)C2)CC2CC1C2(C)C` (mixture of isomers) [Example 4-64] is lower in pIC50: 6.00 to 6.30 for the first, under 5.60 for the second.

Source: patent US12129244B2, “Modulators of Mas-related G-protein receptor X2 and related products and methods” (Escient Pharmaceuticals, Inc., priority 2022, dated 2024)
